For four cell lines, relative viability results are on record in the supplement of paper PMC10307832.

Holding throughout (assay): relative viability (nuclei count vs DMSO), 5 days (fraction); higher = more cells survive
Compound in assay [1]: Cc1ccc2nc(NCCN)c3ncc(C)n3c2c1 + Cc1cc(Nc2cc(N3CCN(C)CC3)nc(Sc3ccc(NC(=O)C4CC4)cc3)n2)n[nH]1 [Tozasertib] (partner 0.1 µM)
In a few lines:
(§1)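 Values are medians from duplicate plates. Each reflects relative viability, defined as the nuclei count of treated wells over that of vehicle wells. Lung cancer cell lines in 1536-well plates were pin-tool dosed one day after seeding with one drug alone or with a fixed anchor-drug dose plus five library-drug doses (not always all listed) in √10 steps, then fixed, stained and imaged at 4× after 5 days.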

Compound in the assay “Salubrinal + Bortezomib”: O=C(/C=C/c1ccccc1)NC(NC(=S)Nc1cccc2cccnc12)C(Cl)(Cl)Cl [Salubrinal] + CC(C)C[C@H](NC(=O)[C@H](Cc1ccccc1)NC(=O)c1cnccn1)B(O)O [Bortezomib] (partner 0.002 µM)
In short, it runs like this:
as §1

Compound in the assay “Salubrinal + Foretinib”: O=C(/C=C/c1ccccc1)NC(NC(=S)Nc1cccc2cccnc12)C(Cl)(Cl)Cl [Salubrinal] + COc1cc2c(Oc3ccc(NC(=O)C4(C(=O)Nc5ccc(F)cc5)CC4)cc3F)ccnc2cc1OCCCN1CCOCC1 [Foretinib] (partner 0.25 µM)
In short, it runs like this: as §1

Compound in the assay “Salubrinal + Linsitinib”: O=C(/C=C/c1ccccc1)NC(NC(=S)Nc1cccc2cccnc12)C(Cl)(Cl)Cl [Salubrinal] + C[C@]1(O)C[C@@H](c2nc(-c3ccc4ccc(-c5ccccc5)nc4c3)c3c(N)nccn32)C1 [Linsitinib] (partner 1 µM)
In a few lines: as §1

With NCI-H1651, the relative viability in assay [1] (first compound 0.04 µM) was 0.625; in assay [1] (first compound 0.1265 µM), 0.71; in assay [1] (first compound 0.4 µM), 0.652; in assay [1] (first compound 1.265 µM) it was 0.677; in assay [1] (first compound 4 µM), 0.718; with Salubrinal + Bortezomib (first compound 0.08 µM), 0.972. For the same cell line, the relative viability with Salubrinal + Bortezomib (first compound 0.253 µM) is 0.925; in the assay with Salubrinal + Bortezomib (first compound 0.8 µM), 0.994; with Salubrinal + Bortezomib (first compound 2.53 µM), 0.925; with Salubrinal + Bortezomib (first compound 8 µM), 0.921; in the assay with Salubrinal + Foretinib (first compound 0.08 µM) it was 1.01; with Salubrinal + Foretinib (first compound 0.253 µM), 0.759. Besides, the relative viability in the assay with Salubrinal + Foretinib (first compound 0.8 µM) stood at 1.02; in the assay with Salubrinal + Foretinib (first compound 2.53 µM), 0.748; with Salubrinal + Foretinib (first compound 8 µM), 0.772; with Salubrinal + Linsitinib (first compound 0.08 µM), 1.09; with Salubrinal + Linsitinib (first compound 0.253 µM), 0.692; with Salubrinal + Linsitinib (first compound 0.8 µM), 1.06. Moreover, the relative viability in the assay with Salubrinal + Linsitinib (first compound 8 µM) worked out at 0.968.

NCI-H1793: the relative viability in assay [1] (first compound 0.04 µM) came out at 0.603; in assay [1] (first compound 0.1265 µM) it was 0.375; in assay [1] (first compound 0.4 µM) it was 0.371; in assay [1] (first compound 1.265 µM), 0.32; in assay [1] (first compound 4 µM), 0.375; with Salubrinal + Foretinib (first compound 0.08 µM), 0.879. Also, the relative viability with Salubrinal + Foretinib (first compound 0.253 µM) turned out to be 0.645; with Salubrinal + Foretinib (first compound 0.8 µM), 0.754; with Salubrinal + Foretinib (first compound 2.53 µM), 0.595; in the assay with Salubrinal + Foretinib (first compound 8 µM), 0.508; in the assay with Salubrinal + Linsitinib (first compound 0.08 µM), 1.1; in the assay with Salubrinal + Linsitinib (first compound 0.253 µM), 0.798. Also, the relative viability with Salubrinal + Linsitinib (first compound 0.8 µM) worked out at 1.04; in the assay with Salubrinal + Linsitinib (first compound 2.53 µM), 0.795; in the assay with Salubrinal + Linsitinib (first compound 8 µM) it was 0.636.

Regarding NCI-H2023, the relative viability was determined as 0.333 in assay [1] (first compound 0.04 µM); 0.395 in assay [1] (first compound 0.1265 µM); 0.361 in assay [1] (first compound 0.4 µM); 0.32 in assay [1] (first compound 1.265 µM); 0.251 in assay [1] (first compound 4 µM); 1.2 with Salubrinal + Bortezomib (first compound 0.08 µM). Moreover, the relative viability in the assay with Salubrinal + Bortezomib (first compound 0.253 µM) was found to be 1.03; in the assay with Salubrinal + Bortezomib (first compound 0.8 µM), 0.967; with Salubrinal + Bortezomib (first compound 2.53 µM), 1.02; in the assay with Salubrinal + Bortezomib (first compound 8 µM), 0.858; with Salubrinal + Foretinib (first compound 0.08 µM), 1.03; in the assay with Salubrinal + Foretinib (first compound 0.253 µM) it was 0.882. Besides, the relative viability was determined as 0.777 with Salubrinal + Foretinib (first compound 0.8 µM); 0.844 in the assay with Salubrinal + Foretinib (first compound 2.53 µM); 0.818 in the assay with Salubrinal + Foretinib (first compound 8 µM); 0.707 with Salubrinal + Linsitinib (first compound 0.08 µM); 0.573 in the assay with Salubrinal + Linsitinib (first compound 0.253 µM); 0.676 with Salubrinal + Linsitinib (first compound 0.8 µM). In addition, the relative viability in the assay with Salubrinal + Linsitinib (first compound 2.53 µM) came to 0.777; with Salubrinal + Linsitinib (first compound 8 µM), 0.706.

As to LC-2-ad, the relative viability in assay [1] (first compound 0.04 µM) turned out to be 0.445; in assay [1] (first compound 0.1265 µM), 0.491; in assay [1] (first compound 0.4 µM) it was 0.533; in assay [1] (first compound 1.265 µM) it was 0.387; in assay [1] (first compound 4 µM), 0.42; with Salubrinal + Bortezomib (first compound 0.08 µM), 0.992. Moreover, the relative viability with Salubrinal + Bortezomib (first compound 0.253 µM) worked out at 0.92; with Salubrinal + Bortezomib (first compound 0.8 µM), 1.16; in the assay with Salubrinal + Bortezomib (first compound 2.53 µM) it was 1; in the assay with Salubrinal + Bortezomib (first compound 8 µM), 1.02; with Salubrinal + Foretinib (first compound 0.08 µM) it was 0.887; in the assay with Salubrinal + Foretinib (first compound 0.253 µM), 0.939. Moreover, the relative viability was determined as 0.919 with Salubrinal + Foretinib (first compound 0.8 µM); 0.966 with Salubrinal + Foretinib (first compound 2.53 µM); 0.886 with Salubrinal + Foretinib (first compound 8 µM); 0.932 with Salubrinal + Linsitinib (first compound 0.08 µM); 0.812 in the assay with Salubrinal + Linsitinib (first compound 0.253 µM); 0.912 with Salubrinal + Linsitinib (first compound 0.8 µM). The values for the relative viability in the assay with Salubrinal + Linsitinib (first compound 2.53 µM) and with Salubrinal + Linsitinib (first compound 8 µM) were 0.817 and 0.844, respectively.
